According to ChEMBL document CHEMBL5053525, “Synthesis and antiviral effect of phosphamide modified vidarabine for treating HSV 1 infections” (Bioorg Med Chem Lett, 2021):
The source made the active and inactive calls. No cut-off for these calls is given here.

test system: Human alphaherpesvirus 1; assay: Antiviral activity against HSV-1 infected in African green monkey Vero cells assessed as inhibition of viral replication by measuring ICPO level at 10 uM pre-infected with viral particles for 2 hrs followed by compound treatment for 24 hrs by Western blot analysis; type: functional, organism-based; settings: not given

Row | SMILES | inhibition
1 | CC(C)C[C@H](N[P@](=O)(OC[C@H]1O[C@@H](n2cnc3c(N)ncnc32)[C@@H](O)[C@@H]1O)Oc1ccccc1)C(=O)OC(C)C | inactive
2 | CC(C)C[C@H](NP(=O)(OC[C@H]1O[C@@H](n2cnc3c(N)ncnc32)[C@@H](O)[C@@H]1O)Oc1ccccc1)C(=O)OC(C)C (stereo partly specified) | inactive
3 | CC(C)OC(=O)[C@H](Cc1ccccc1)N[P@](=O)(OC[C@H]1O[C@@H](n2cnc3c(N)ncnc32)[C@@H](O)[C@@H]1O)Oc1ccccc1 | inactive

test system: Human alphaherpesvirus 1; assay: Antiviral activity against HSV-1 infected in human Huh-7 cells assessed as inhibition of viral replication by measuring ICPO level at 10 uM pre-infected with viral particles for 2 hrs followed by compound treatment for 24 hrs by Western blot analysis; type: functional, organism-based; settings: not given

Row | SMILES | inhibition
4 | CC(C)OC(=O)[C@H](C)N[P@](=O)(OC[C@H]1O[C@@H](n2cnc3c(N)ncnc32)[C@@H](O)[C@@H]1O)Oc1ccccc1 | Active
5 | COC(=O)[C@H](NP(=O)(OC[C@H]1O[C@@H](n2cnc3c(N)ncnc32)[C@@H](O)[C@@H]1O)Oc1ccccc1)C(C)C (stereo partly specified) | Active
6 | CSCC[C@H](N[P@](=O)(OC[C@H]1O[C@@H](n2cnc3c(N)ncnc32)[C@@H](O)[C@@H]1O)Oc1ccccc1)C(=O)OC(C)C | Active
7 | COC(=O)[C@@H](NP(=O)(OC[C@H]1O[C@@H](n2cnc3c(N)ncnc32)[C@@H](O)[C@@H]1O)Oc1ccccc1)C(C)C (stereo partly specified) | Active
8 | CC(C)C[C@H](N[P@](=O)(OC[C@H]1O[C@@H](n2cnc3c(N)ncnc32)[C@@H](O)[C@@H]1O)Oc1ccccc1)C(=O)OC(C)C | Active
9 | CC(C)OC(=O)[C@@H](NP(=O)(OC[C@H]1O[C@@H](n2cnc3c(N)ncnc32)[C@@H](O)[C@@H]1O)Oc1ccccc1)C(C)C (stereo partly specified) | Active
10 | CCCCCOC(=O)Nc1ncnc2c1ncn2[C@@H]1O[C@H](CO[P@@](=O)(N[C@@H](C)C(=O)OC(C)C)Oc2ccccc2)[C@@H](O)[C@@H]1O | Active
11 | CC(C)OC(=O)[C@H](Cc1c[nH]c2ccccc12)N[P@](=O)(OC[C@H]1O[C@@H](n2cnc3c(N)ncnc32)[C@@H](O)[C@@H]1O)Oc1ccccc1 | Active
12 | CC(C)OC(=O)[C@H](C)NP(=O)(OC[C@H]1O[C@@H](n2cnc3c(N)ncnc32)[C@@H](O)[C@@H]1O)Oc1ccccc1 (stereo partly specified) | Active
13 | CC(C)OC(=O)CN[P@](=O)(OC[C@H]1O[C@@H](n2cnc3c(N)ncnc32)[C@@H](O)[C@@H]1O)Oc1ccccc1 | Active
14 | CC(C)C[C@H](NP(=O)(OC[C@H]1O[C@@H](n2cnc3c(N)ncnc32)[C@@H](O)[C@@H]1O)Oc1ccccc1)C(=O)OC(C)C (stereo partly specified) | Active
15 | CC(C)OC(=O)[C@@H](N[P@](=O)(OC[C@H]1O[C@@H](n2cnc3c(N)ncnc32)[C@@H](O)[C@@H]1O)Oc1ccccc1)C(C)C | Active
16 | CC(C)OC(=O)[C@H](Cc1ccccc1)N[P@](=O)(OC[C@H]1O[C@@H](n2cnc3c(N)ncnc32)[C@@H](O)[C@@H]1O)Oc1ccccc1 | Active
17 | CSCC[C@H](NP(=O)(OC[C@H]1O[C@@H](n2cnc3c(N)ncnc32)[C@@H](O)[C@@H]1O)Oc1ccccc1)C(=O)OC(C)C (stereo partly specified) | Active
18 | CC(C)OC(=O)[C@@H](C)N[P@](=O)(OC[C@H]1O[C@@H](n2cnc3c(N)ncnc32)[C@@H](O)[C@@H]1O)Oc1ccccc1 | Active

test system: Human alphaherpesvirus 1; assay: Antiviral activity against HSV-1 infected in human HepG2 cells assessed as inhibition of viral replication by measuring ICPO level at 10 uM pre-infected with viral particles for 2 hrs followed by compound treatment for 24 hrs by Western blot analysis; type: functional, organism-based; settings: not given

Row | SMILES | inhibition
19 | CC(C)OC(=O)[C@H](C)N[P@](=O)(OC[C@H]1O[C@@H](n2cnc3c(N)ncnc32)[C@@H](O)[C@@H]1O)Oc1ccccc1 | Active
20 | COC(=O)[C@H](NP(=O)(OC[C@H]1O[C@@H](n2cnc3c(N)ncnc32)[C@@H](O)[C@@H]1O)Oc1ccccc1)C(C)C (stereo partly specified) | Active
21 | CSCC[C@H](N[P@](=O)(OC[C@H]1O[C@@H](n2cnc3c(N)ncnc32)[C@@H](O)[C@@H]1O)Oc1ccccc1)C(=O)OC(C)C | Active
22 | COC(=O)[C@@H](NP(=O)(OC[C@H]1O[C@@H](n2cnc3c(N)ncnc32)[C@@H](O)[C@@H]1O)Oc1ccccc1)C(C)C (stereo partly specified) | Active
23 | CC(C)C[C@H](N[P@](=O)(OC[C@H]1O[C@@H](n2cnc3c(N)ncnc32)[C@@H](O)[C@@H]1O)Oc1ccccc1)C(=O)OC(C)C | Active
24 | CC(C)OC(=O)[C@@H](NP(=O)(OC[C@H]1O[C@@H](n2cnc3c(N)ncnc32)[C@@H](O)[C@@H]1O)Oc1ccccc1)C(C)C (stereo partly specified) | Active
25 | CCCCCOC(=O)Nc1ncnc2c1ncn2[C@@H]1O[C@H](CO[P@@](=O)(N[C@@H](C)C(=O)OC(C)C)Oc2ccccc2)[C@@H](O)[C@@H]1O | Active
26 | CC(C)OC(=O)[C@H](Cc1c[nH]c2ccccc12)N[P@](=O)(OC[C@H]1O[C@@H](n2cnc3c(N)ncnc32)[C@@H](O)[C@@H]1O)Oc1ccccc1 | Active
27 | CC(C)OC(=O)[C@H](C)NP(=O)(OC[C@H]1O[C@@H](n2cnc3c(N)ncnc32)[C@@H](O)[C@@H]1O)Oc1ccccc1 (stereo partly specified) | Active
28 | CC(C)OC(=O)CN[P@](=O)(OC[C@H]1O[C@@H](n2cnc3c(N)ncnc32)[C@@H](O)[C@@H]1O)Oc1ccccc1 | Active
29 | CC(C)C[C@H](NP(=O)(OC[C@H]1O[C@@H](n2cnc3c(N)ncnc32)[C@@H](O)[C@@H]1O)Oc1ccccc1)C(=O)OC(C)C (stereo partly specified) | Active
30 | CC(C)OC(=O)[C@@H](N[P@](=O)(OC[C@H]1O[C@@H](n2cnc3c(N)ncnc32)[C@@H](O)[C@@H]1O)Oc1ccccc1)C(C)C | Active
31 | CC(C)OC(=O)[C@H](Cc1ccccc1)N[P@](=O)(OC[C@H]1O[C@@H](n2cnc3c(N)ncnc32)[C@@H](O)[C@@H]1O)Oc1ccccc1 | Active
32 | CSCC[C@H](NP(=O)(OC[C@H]1O[C@@H](n2cnc3c(N)ncnc32)[C@@H](O)[C@@H]1O)Oc1ccccc1)C(=O)OC(C)C (stereo partly specified) | Active
33 | CC(C)OC(=O)[C@@H](C)N[P@](=O)(OC[C@H]1O[C@@H](n2cnc3c(N)ncnc32)[C@@H](O)[C@@H]1O)Oc1ccccc1 | Active

test system: Human alphaherpesvirus 1; assay: Antiviral activity against HSV-1 infected in human Huh-7 cells assessed as inhibition of viral replication by measuring ICPO level; type: functional, organism-based; settings: dose 0.1-1.6 µM

Row | SMILES | inhibition
34 | CC(C)C[C@H](N[P@](=O)(OC[C@H]1O[C@@H](n2cnc3c(N)ncnc32)[C@@H](O)[C@@H]1O)Oc1ccccc1)C(=O)OC(C)C | Dose-dependent effect
35 | CC(C)C[C@H](NP(=O)(OC[C@H]1O[C@@H](n2cnc3c(N)ncnc32)[C@@H](O)[C@@H]1O)Oc1ccccc1)C(=O)OC(C)C (stereo partly specified) | Dose-dependent effect
36 | CC(C)OC(=O)[C@H](Cc1ccccc1)N[P@](=O)(OC[C@H]1O[C@@H](n2cnc3c(N)ncnc32)[C@@H](O)[C@@H]1O)Oc1ccccc1 | Dose-dependent effect

test system: Human alphaherpesvirus 1; assay: Antiviral activity against HSV-1 infected in human Huh-7 cells assessed as reduction in plaque forming units at 1 uM measured after 48 hrs by virus titre method; type: functional; settings: not given

Row | SMILES | Activity
37 | NC(=O)c1ncn([C@@H]2O[C@H](CO)[C@@H](O)[C@H]2O)n1 [RIBAVIRIN] | 100 PFU/ml
38 | CC(C)C[C@H](N[P@](=O)(OC[C@H]1O[C@@H](n2cnc3c(N)ncnc32)[C@@H](O)[C@@H]1O)Oc1ccccc1)C(=O)OC(C)C | inactive

test system: Human alphaherpesvirus 1; assay: Antiviral activity against HSV-1 infected in human Huh-7 cells assessed as reduction in plaque forming units at 1 uM measured after 48 hrs by virus titre method relative to NTC; type: functional; settings: not given

Row | SMILES | fold change (FC)
39 | CC(C)C[C@H](N[P@](=O)(OC[C@H]1O[C@@H](n2cnc3c(N)ncnc32)[C@@H](O)[C@@H]1O)Oc1ccccc1)C(=O)OC(C)C | 1000

test system: Human alphaherpesvirus 1; assay: Antiviral activity against GFP-expressing HSV-1 assessed as reduction in viral growth by fluorescence assay; type: functional, organism-based; settings: not given

Row | SMILES | EC50 [nM]
40 | CC(C)C[C@H](N[P@](=O)(OC[C@H]1O[C@@H](n2cnc3c(N)ncnc32)[C@@H](O)[C@@H]1O)Oc1ccccc1)C(=O)OC(C)C | 526
41 | CC(C)C[C@H](NP(=O)(OC[C@H]1O[C@@H](n2cnc3c(N)ncnc32)[C@@H](O)[C@@H]1O)Oc1ccccc1)C(=O)OC(C)C (stereo partly specified) | 1180
42 | CC(C)OC(=O)[C@H](Cc1ccccc1)N[P@](=O)(OC[C@H]1O[C@@H](n2cnc3c(N)ncnc32)[C@@H](O)[C@@H]1O)Oc1ccccc1 | 1060
43 | Nc1nc2c(ncn2COC(CO)CO)c(=O)[nH]1 [GANCICLOVIR] | < 100

test system: Huh-7; assay: Cytotoxicity against human Huh-7 cells assessed as effect on cell viability at 10 uM measured by MTT asay; type: cell-based; settings: huh-7, 10 µM

Row | SMILES | Activity
44 | CC(C)C[C@H](N[P@](=O)(OC[C@H]1O[C@@H](n2cnc3c(N)ncnc32)[C@@H](O)[C@@H]1O)Oc1ccccc1)C(=O)OC(C)C | Non-Toxic
45 | CC(C)C[C@H](NP(=O)(OC[C@H]1O[C@@H](n2cnc3c(N)ncnc32)[C@@H](O)[C@@H]1O)Oc1ccccc1)C(=O)OC(C)C (stereo partly specified) | Non-Toxic
46 | CC(C)OC(=O)[C@H](Cc1ccccc1)N[P@](=O)(OC[C@H]1O[C@@H](n2cnc3c(N)ncnc32)[C@@H](O)[C@@H]1O)Oc1ccccc1 | Non-Toxic
